Consider 14 compounds from patent publication US10821115B2, “Compounds that inhibit Mcl-1 protein” (priority 2017, dated 2020).

Broadly, the IC50 is the concentration that gives 50% inhibition.

In assay [1] the target is recombinant human Mcl-1 (residues 171-327) / Bim interaction (Homo sapiens (Human), UniProt Q07820). Briefly: biochemical. It is filed as binding. Conditions: read-out: Mcl-1 HTRF IC50. A general note: In TR-FRET formats the signal depends on donor and acceptor labels being close together.
Sequence of recombinant human Mcl-1 (residues 171-327) / Bim interaction (Q07820 171-327): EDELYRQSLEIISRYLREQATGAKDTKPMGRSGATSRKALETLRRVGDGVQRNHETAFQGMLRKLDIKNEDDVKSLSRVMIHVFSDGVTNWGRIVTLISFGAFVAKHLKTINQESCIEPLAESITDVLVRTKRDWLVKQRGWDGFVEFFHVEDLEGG
Assay [2] relates to human multiple myeloma cell line, OPM-2. In words: Cell viability assay (OPM-2 10 FBS), CellTiter-Glo. Format: cell-based. In short, it runs like this: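 Cells were seeded at 3000 cells/well in RPMI 1640 with 10% FBS and exposed to serially diluted compounds for 16 h at 37 °C, 5% CO2.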
For orientation: ATP-based viability assays read luminescence as a measure of living cells.

[3] abbreviates: TR-FRET, Mcl-1(171-327) / biotin-Bim (51-76).
Where [4] appears, read: Homo sapiens, OPM-2, 16 h, read-out: OPM-2 10% FBS IC50 IP, OPM-2 cells, 10% FBS, 16 h, CellTiter-Glo.
[5] abbreviates: 0.1 nM Mcl-1(171-327), 0.05 nM biotin-Bim (51-76).
Setting [6] is: Homo sapiens, OPM-2, 16 h, read-out: OPM-2 10% FBS IC50 IP, OPM-2 cells, 10% FBS, 16 h incubation.
Setting [7] is: read-out: OPM-2 10% FBS IC50 IP, OPM-2 cells, 10% FBS, 16 h incubation.
Where [8] appears, read: read-out: OPM-2 10% FBS IC50 IP, OPM-2 cells, 10% FBS, 16 h, CellTiter-Glo.

Where two headings read alike, the source gives them in different places.

For `CO[C@]1(CCN2CCN3CCCC[C@@H]3C2)/C=C/C[C@H](C)[C@@H](C)S(=O)(=O)NC(=O)c2ccc3c(c2)N(C[C@@H]2CC[C@H]21)C[C@@]1(CCCc2cc(Cl)ccc21)CO3` [Example 100591, (1S,3′R,6′R,7′R,8′E,11′S,12′R)-6-chloro-7′-methoxy-11′,12′-dimethyl-7′-(2-((9aR)-octahydro-2H-pyrido[1,2-a]pyrazin-2-yl)ethyl)-3,4-dihydro-2H,15′H-spiro[naphthalene-1,22′-[20]oxa[13]thia[1,14]diazatetracyclo [14.7.2.0~3,6~.0~19,24~]pentacosa[8,16,18,24]tetraen]-15′-one 13′,13′-dioxide], the IC50 in assay [1] (setting [3]) was 0.075 nM; in assay [2] (setting [4]) it was 60 nM.
As to `C[C@@H]1[C@@H](C)C/C=C/[C@@](CN2CCN3CCCC[C@@H]3C2)(OCC2CC2)[C@@H]2CC[C@H]2CN2C[C@@]3(CCCc4cc(Cl)ccc43)COc3ccc(cc32)C(=O)NS1(=O)=O` [Example 155, (1S,3′R,6′R,7′R,8′E,11′S,12′R)-6-chloro-7′-(cyclopropylmethoxy)-11′,12′-dimethyl-7′-((9aR)-octahydro-2H-pyrido[1,2-a]pyrazin-2-ylmethyl)-3,4-dihydro-2H,15′H-spiro[naphthalene-1,22′-[20]oxa[13]thia[1,14]diazatetracyclo [14.7.2.0~3,6~.0~19,24~]pentacosa[8,16,18,24]tetraen]-15′-one 13′,13′-dioxide], the IC50 in assay [1] (setting [5]) worked out at 0.228 nM; in assay [2] (setting [6]), 378 nM.
Take `CO[C@@]1(Cc2nc(CN3CCOCC3)c(C)o2)/C=C/C[C@H](C)[C@@H](C)S(=O)(=O)NC(=O)c2ccc3c(c2)N(C[C@@H]2CC[C@H]21)C[C@@]1(CCCc2cc(Cl)ccc21)CO3` [Example 100587, (1S,3′R,6′R,7′S,8′E,11′S,12′R)-6-chloro-7′-methoxy-11′,12′-dimethyl-7′-((5-methyl-4-(4-morpholinylmethyl)-1,3-oxazol-2-yl)methyl)-3,4-dihydro-2H,15′H-spiro[naphthalene-1,22′-[20]oxa[13]thia[1,14]diazatetracyclo [14.7.2.0~3,6~.0~19,24~]pentacosa[8,16,18,24]tetraen]-15′-one 13′,13′-dioxide]: the IC50 in assay [1] (setting [3]) came to 0.136 nM; in assay [2] (setting [4]) it was 177 nM.
Take `CO[C@@]1(CN2CCN(C3COC3)CC2)/C=C/C[C@H](C)[C@@H](C)S(=O)(=O)NC(=O)c2ccc3c(c2)N(C[C@@H]2CC[C@H]21)C[C@@]1(CCCc2cc(Cl)ccc21)CO3` [Example 250, (1S,3′R,6′R,7′S,8′E,11′S,12′R)-6-chloro-7′-methoxy-11′,12′-dimethyl-7′-((4-(3-oxetanyl)-1-piperazinyl)methyl)-3,4-dihydro-2H,15′H-spiro[naphthalene-1,22′-[20]oxa[13]thia[1,14]diazatetracyclo [14.7.2.0~3,6~.0~19,24~]pentacosa[8,16,18,24]tetraen]-15′-one 13′,13′-dioxide]: the IC50 in assay [1] (setting [5]) came out at 0.071 nM; in assay [2] (setting [6]), 47 nM.
With `Cc1cc(C[C@]2(O)/C=C/C[C@H](C)[C@@H](C)S(=O)(=O)NC(=O)c3ccc4c(c3)N(C[C@@H]3CC[C@H]32)C[C@@]2(CCCc3cc(Cl)ccc32)CO4)no1` [Example 100541, (1S,3′R,6′R,7′S,8′E,11′S,12′R)-6-chloro-7′-hydroxy-11′,12′-dimethyl-7′-((5-methyl-1,2-oxazol-3-yl)methyl)-3,4-dihydro-2H,15′H-spiro[naphthalene-1,22′-[20]oxa[13]thia[1,14]diazatetracyclo [14.7.2.0~3,6~.0~19,24~]pentacosa[8,16,18,24]tetraen]-15′-one 13′,13′-dioxide], the IC50 is 0.76 nM in assay [1] (setting [3]) and 826 nM in assay [2] (setting [4]).
Consider `CO[C@@]1(CN2CCN3CCN(S(C)(=O)=O)C[C@@H]3C2)/C=C/C[C@H](C)[C@@H](C)S(=O)(=O)NC(=O)c2ccc3c(c2)N(C[C@@H]2CC[C@H]21)C[C@@]1(CCCc2cc(Cl)ccc21)CO3` (single isomer, unassigned) [Example 244], for which the results for the IC50 in assay [1] (setting [5]) and in assay [2] (setting [7]) were 1.65 nM and 638 nM, respectively.
Take `C[C@@H]1[C@@H](C)CCC[C@](C#N)(NC(=O)c2ccccc2)[C@@H]2CC[C@H]2CN2C[C@@]3(CCCc4cc(Cl)ccc43)COc3ccc(cc32)C(=O)NS1(=O)=O` [Example 100255, N-((1S,3′R,6′R,7′S,11′S,12′R)-6-chloro-7′-cyano-11′,12′-dimethyl-13′,13′-dioxido-15′-oxo-3,4-dihydro-2H-spiro[naphthalene-1,22′-[20]oxa[13]thia[1,14]diazatetracyclo [14.7.2.0~3,6~.0~19,24~]pentacosa[16,18,24]trien]-7′-yl)benzamide]: the IC50 in assay [1] (setting [3]) was determined as 14.4 nM; in assay [2] (setting [4]), 5020 nM.
With `C[C@@H]1[C@@H](C)C/C=C/[C@@](O)(Cc2ccccn2)[C@@H]2CC[C@H]2CN2C[C@@]3(CCCc4cc(Cl)ccc43)COc3ccc(cc32)C(=O)NS1(=O)=O` [Example 100241, (1S,3′R,6′R,7′S,8′E,11′S,12′R)-6-chloro-7′-hydroxy-11′,12′-dimethyl-7′-(2-pyridinylmethyl)-3,4-dihydro-2H,15′H-spiro[naphthalene-1,22′-[20]oxa[13]thia[1,14]diazatetracyclo [14.7.2.0~3,6~.0~19,24~]pentacosa[8,16,18,24]tetraen]-15′-one 13′,13′-dioxide], the IC50 in assay [1] (setting [3]) stood at 0.365 nM; in assay [2] (setting [8]), 401 nM.
On to `CC(C)CO[C@@]1(CN2CCN3CCCC[C@@H]3C2)/C=C/C[C@H](C)[C@@H](C)S(=O)(=O)NC(=O)c2ccc3c(c2)N(C[C@@H]2CC[C@H]21)C[C@@]1(CCCc2cc(Cl)ccc21)CO3` [Example 350, (15,3′R,6′R,7′S,8′E,11′S,12′R)-6-chloro-11′,12′-dimethyl-7′-(2-methylpropoxy)-7′-((9aR)-octahydro-2H-pyrido[1,2-a]pyrazin-2-ylmethyl)-3,4-dihydro-2H,15′H-spiro[naphthalene-1,22′-[20]oxa[13]thia[1,14]diazatetracyclo [14.7.2.0~3,6~.0~19,24~]pentacosa[8,16,18,24]tetraen]-15′-one 13′,13′-dioxide], for which the IC50 was 12.3 nM in assay [1] (setting [5]) and above 33300 nM in assay [2] (setting [6]).
For the compound `CC(C)CO[C@]1(C=O)/C=C/C[C@H](C)[C@@H](C)S(=O)(=O)NC(=O)c2ccc3c(c2)N(C[C@@H]2CC[C@H]21)C[C@@]1(CCCc2cc(Cl)ccc21)CO3` [Example 100603, (1S,3′R,6′R,7′R,8′E,11′S,12′R)-6-chloro-11′,12′-dimethyl-7′-(2-methylpropoxy)-15′-oxo-3,4-dihydro-2H-spiro[naphthalene-1,22′-[20]oxa[13]thia[1,14]diazatetracyclo [14.7.2.0~3,6~.0~19,24~]pentacosa[8,16,18,24]tetraene]-7′-carbaldehyde 13′,13′-dioxide], the figures for the IC50 in assay [1] (setting [3]) and in assay [2] (setting [4]) were 0.651 nM and 1570 nM, respectively.
Consider `COCCN(C)S(=O)(=O)C[C@]1(O)CCC[C@H](C)[C@@H](C)S(=O)(=O)NC(=O)c2ccc3c(c2)N(C[C@@H]2CC[C@H]21)C[C@@]1(CCCc2cc(Cl)ccc21)CO3` [Example 100166, 1-((1S,3′R,6′R,7′S,11′S,12′R)-6-chloro-7′-hydroxy-11′,12′-dimethyl-13′,13′-dioxido-15′-oxo-3,4-dihydro-2H-spiro[naphthalene-1,22′-[20]oxa[13]thia[1,14]diazatetracyclo [14.7.2.0~3,6~.0~19,24~]pentacosa[16,18,24]trien]-7′-yl)-N-(2-methoxyethyl)-N-methylmethanesulfonamide], for which the IC50 turned out to be 1.77 nM in assay [1] (setting [3]) and 945 nM in assay [2] (setting [8]).
Turning to `CO[C@]1(CN2CCN3CCS(=O)(=O)C[C@@H]3C2)/C=C/C[C@H](C)[C@@H](C)S(=O)(=O)NC(=O)c2ccc3c(c2)N(C[C@@H]2CC[C@H]21)C[C@@]1(CCCc2cc(Cl)ccc21)CO3` (single isomer, unassigned) [Example 221], the IC50 in assay [1] (setting [5]) was found to be 0.069 nM; in assay [2] (setting [7]), 120 nM.
In the case of `CO[C@@H](C(=O)N(C)C)[C@@]1(O)/C=C/C[C@H](C)[C@@H](C)S(=O)(=O)NC(=O)c2ccc3c(c2)N(C[C@@H]2CC[C@H]21)C[C@@]1(CCCc2cc(Cl)ccc21)CO3` [Example 100286, (2R)-2-((1S,3′R,6′R,7′R,8′E,11′S,12′R)-6-chloro-7′-hydroxy-11′,12′-dimethyl-13′,13′-dioxido-15′-oxo-3,4-dihydro-2H-spiro[naphthalene-1,22′-[20]oxa[13]thia[1,14]diazatetracyclo [14.7.2.0~3,6~.0~19,24~]pentacosa[8,16,18,24]tetraen]-7′-yl)-2-methoxy-N,N-dimethylethanamide], the IC50 was determined as 0.471 nM in assay [1] (setting [3]) and 1580 nM in assay [2] (setting [4]).
Turning to `COCCN1CCN(C[C@]2(OC)/C=C/C[C@H](C)[C@@H](C)S(=O)(=O)NC(=O)c3ccc4c(c3)N(C[C@@H]3CC[C@H]32)C[C@@]2(CCCc3cc(Cl)ccc32)CO4)CC1` [Example 195, (1S,3′R,6′R,7′S,8′E,11′S,12′R)-6-chloro-7′-methoxy-7′-((4-(2-methoxyethyl)-1-piperazinyl)methyl)-11′,12′-dimethyl-3,4-dihydro-2H,15′H-spiro[naphthalene-1,22′-[20]oxa[13]thia[1,14]diazatetracyclo [14.7.2.0~3,6~.0~19,24~]pentacosa[8,16,18,24]tetraen]-15′-one 13′,13′-dioxide], the results for the IC50 in assay [1] (setting [5]) and in assay [2] (setting [6]) were 0.214 nM and 65 nM, respectively.
